Data as given in patent publication US20140357512A1, “HISTONE DEACETYLASE (HDAC) BIOMARKERS IN MULTIPLE MYELOMA” (priority 2013, published 2014).

Tested on: human myeloma cell line MM.1S
Assay: SILAC acetylated-lysine peptide profiling, HDAC inhibitor vs DMSO (light/heavy ratio)
Assay type: cell-based
Excerpt: An embodiment of the invention comprises utilizing the SILAC method in order to quantitate changes in protein expression between two or more populations of cells. The SILAC method is a technique based on mass spectrometry that detects differences in protein abundance among samples using non-radioactive isotopic labeling. The SILAC method is known in the art, and described in detail in Ong et al., “Stable Isotope Labeling by Amino Acids in Cell Culture, SILAC, as a Simple and Accurate Approach to Expression Proteomics”, Molecular & Cellular Proteomics, vol. 1, pp. 376-386 (2002), which is incorporated herein by reference in its entirety.
Briefly, the SILAC method involves growing two populations of cells in cell culture. The first population of cells is grown in growth media containing normal amino acids (“normal media”). The second population of cells is grown in media lacking a standard essential amino acid (such as lysine), but is then supplemented with a non-radioactive, isotopically labeled form of that essential amino acid (such as lysine labeled with ^13C atoms, rather than normal ^12C atoms), which is called “heavy media”. When the two populations of cells are each growing in the medium, they incorporate the amino acids into all of their proteins. The growth of cells maintained in the heavy media is no different from that in normal media. All peptides containing the heavy amino acids are heavier than their normal counterparts. The cells from each of the two populations of cells are lysed. The lysates from each of the two cell populations are then combined. The combined cell lysates are then analyzed by mass spectrometry. Pairs of chemically identical peptides of different stable isotope composition can be differentiated in a mass spectrometer due to their difference in mass. The ratio of peak intensities in the mass spectrum for such peptide pairs reflects the abundance ratio for the two proteins.
This example describes SILAC studies that were performed to compare the effects of three different HDAC inhibitors (Compound A, Compound B, and tubastatin A) to a control on a human multiple myeloma cell line. The HDAC inhibitors were also compared amongst themselves to determine differences in their effects.
A human myeloma cell line MM.1S was grown using either ^12C (light) or ^13C (heavy) lysine containing culture medium. The “heavy” cells were treated with DMSO as the control, and the “light” cells were treated with a single HDAC inhibitor at 37° C. for 6 hours. The heavy and light cells were lysed, and the lysates were mixed in 1:1 ratio and digested with the protease trypsin. The acetylated lysine containing peptides (due to the action of the HDAC inhibitor) in the digested peptide pool were captured by a non-specific anti-acetylated lysine antibody cocktail (the antibodies identify both light and heavy acetylated peptides), and subjected to mass spectrometry analysis in order to identify thousands of individual peptides.
Thousands of peptides were identified in pairs (^12C and ^13C) due to their known mass differences. The amino acid sequence and quantitative ratio (Light/Heavy) of a given peptide in two differentially treated cell lysates were then determined and annotated with their possible protein (gene) sources.
As stated above, three HDAC inhibitors (Compound A, Compound B, and Tubastatin A) were used. Thus, the SILAC method was performed three times, with a different HDAC inhibitor compared to a control each time. Accordingly, there are three pairs of quantitative data in the table below, i.e., Compound A:DMSO, Compound B:DMSO, and Tubastatin A:DMSO. A cut-off of 1.30 fold of change (increase or decrease) was then used to determine “changed” or “+” in the table, and any peptides with a fold of change less than 1.3 fold were determined to be “unchanged” or “0” in the table. Those peptides that were not identified were marked as “NA” in the table. […]

O=C(NO)c1cnc(NC2(c3cccc(F)c3)CCCCC2)nc1 [Compound B, 2-((1-(3-fluorophenyl)cyclohexyl)amino)-N-hydroxypyrimidine-5-carboxamide]
light to heavy ratio (L/H ratio) of acetylated peptide, log 2 scale (FLNAENAQK(ac)FK (SEQ ID NO: 200), Ran-specific GTPase-activating protein [150], RANBP1): 0.00 | light to heavy ratio (L/H ratio) of acetylated peptide, log 2 scale (FNQK(ac)GEVYK (SEQ ID NO: 149), Lipoamide acyltransferase component of branched-chain alpha-keto acid dehydrogenase complex mitochondrial [435], DBT): 0.00 | light to heavy ratio (L/H ratio) of acetylated peptide, log 2 scale (FPHSAHQK(ac)YVR (SEQ ID NO: 253), Ribosomal protein L14 variant [71], RPL14): 0.00 | L/H ratio of acetylated peptide (FQAK(ac)[…] (SEQ ID NO: 415), Microtubule-associated protein RP/EB family member 1 [66], MAPRE1): −1.00 log 2 | light to heavy ratio (L/H ratio) of acetylated peptide, log 2 scale (FWNK(ac)FLENK (SEQ ID NO: 187), NADH dehydrogenase [ubiquinone] 1 beta subcomplex subunit 6 [49], NDUFB6): 0.00 | light to heavy ratio (L/H ratio) of acetylated peptide AVDLIQK(ac)HK (SEQ ID NO: 546) (Flap endonuclease 1 [252], gene FEN1, inhibitor:DMSO): 0.00 log 2 | light to heavy ratio (L/H ratio), log 2 scale, acetylated peptide GGVVGIK(ac)VDK (SEQ ID NO: 774) (Fructose-bisphosphate aldolase A [108], gene ALDOA, drug:DMSO): 0.00 | L/H ratio of acetylated peptide ASGLAAGK(ac)GVIVAK (SEQ ID NO: 37) (GART [156], log 2 scale, drug vs DMSO): 0.00 | light to heavy ratio (L/H ratio) of acetylated peptide, log 2 scale (GDASK(ac)EDIDTAMK (SEQ ID NO: 161), Isoform 1 of Hydroxyacyl-coenzyme A dehydrogenase mitochondrial [241], HADH): 0.00 | light to heavy ratio (L/H ratio) of acetylated peptide, log 2 scale (GDGTGGK(ac)SIYGER (SEQ ID NO: 196), Peptidyl-prolyl cis-trans isomerase B [116], PPIB): 0.00 | light to heavy ratio (L/H ratio) of acetylated peptide, log 2 scale (GFGGK(ac)YGVER (SEQ ID NO: 162), Hematopoietic lineage cell-specific protein [123], HCLS1): 0.00 | light to heavy ratio (L/H ratio) of acetylated peptide, log 2 scale (GIVK(ac)DIIHDPGR (SEQ ID NO: 207), 60S ribosomal protein L8 [46], RPL8): 0.00 | L/H ratio of acetylated peptide (GK(ac)LEEQRPER (SEQ ID NO: 459), Tumor protein translationally-controlled 1 [102], TPT1): −0.42 log 2 | L/H ratio of acetylated peptide (GK(ac)YMLVR (SEQ ID NO: 377), Carbohydrate sulfotransferase 1 [296], CHST1): 1.00 log 2 | L/H ratio of acetylated peptide (GLAPQNK(ac)PELQK (SEQ ID NO: 393), Isoform 2 of Protein FAM107B [225], FAM107B): 0.69 log 2 | light to heavy ratio (L/H ratio) of acetylated peptide, log 2 scale (GLFIIDDK(ac)GILR (SEQ ID NO: 197), Peroxiredoxin-1 [136], PRDX1): 0.00 | L/H ratio of acetylated peptide LVK(ac)VWNLANCK (SEQ ID NO: 39) (GNB2L1 [175], log 2 scale, drug vs DMSO): 0.00 | L/H ratio of acetylated peptide IIVDELK(ac)QEVISTSSK (SEQ ID NO: 38) (GNB2L1 [271], log 2 scale, drug vs DMSO): 0.00 | L/H ratio of acetylated peptide (GNTPK(ac)[…] (SEQ ID NO: 449), Nucleolar protein 56 [347], SNORD110, SNORD86, NOP56): −0.41 log 2 | L/H ratio of acetylated peptide (ac)AHYNFK(ac)K (SEQ ID NO: 40) (GTPBP4 [7], log 2 scale, drug vs DMSO): 0.00 | L/H ratio of acetylated peptide (GYGFGLIK(ac)LDLK (SEQ ID NO: 465), Voltage-dependent anion-selective channel protein 1 [28], VDAC1): −0.57 log 2 | light to heavy ratio (L/H ratio) of acetylated peptide, log 2 scale (GYLTK(ac)EDLR (SEQ ID NO: 216), Protein S100-A10 [28], S100A10): 0.00 | light to heavy ratio (L/H ratio) of acetylated peptide (ac)[…](ac)PGECLR (SEQ ID NO: 575) (Galectin-1 [13], gene LGALS1, inhibitor:DMSO): 0.00 log 2 | light to heavy ratio (L/H ratio) of acetylated peptide ISGASEK(ac)[…] (SEQ ID NO: 543) (Glutamate dehydrogenase 1 mitochondrial [503], gene GLUD1, inhibitor:DMSO): 0.00 log 2 | light to heavy ratio (L/H ratio) of acetylated peptide […](ac)YDNSLK (SEQ ID NO: 620) (Glyceraldehyde-3-phosphate dehydrogenase [139], gene GAPDH, inhibitor:DMSO): 0.00 log 2 | light to heavy ratio (L/H ratio) of acetylated peptide VVK(ac)QASEGPLK (SEQ ID NO: 597) (Glyceraldehyde-3-phosphate dehydrogenase [263], gene GAPDH, inhibitor:DMSO): 0.00 log 2 | light to heavy ratio (L/H ratio) of acetylated peptide AHLQK(ac)LMSDK (SEQ ID NO: 549) (Glycyl-tRNA synthetase [224], gene GARS, inhibitor:DMSO): 0.00 log 2 | light to heavy ratio (L/H ratio), log 2 scale, acetylated peptide LLLLGAGESGK(ac)STIVK (SEQ ID NO: 769) (Guanine nucleotide-binding protein G(olf) subunit alpha [55], gene GNAL, drug:DMSO): 0.00 | L/H ratio of acetylated peptide AGGK(ac)AGK(ac)DSGK (SEQ ID NO: 15) (H2AFV [5:8], log 2 scale, drug vs DMSO): 0.95 | light to heavy ratio (L/H ratio) of acetylated peptide FSPDDK(ac)YSR (SEQ ID NO: 504) (H/ACA ribonucleoprotein complex subunit 3 [40], gene NOP10, inhibitor:DMSO): 0.00 log 2 | L/H ratio of acetylated peptide GQQQVFK(ac)GLNDK (SEQ ID NO: 41) (HADHA [406], log 2 scale, drug vs DMSO): 0.00 | L/H ratio of acetylated peptide EPVAVLK(ac)ANR (SEQ ID NO: 9) (HEXB [161], log 2 scale, drug vs DMSO): −0.40
